Assay [1] relates to guinea pig tracheal spiral preparations. Briefly: Bronchodilation in vitro; guinea pig tracheal spiral preparations. Particulars: relative to total relaxation evoked in the presence of 10⁻³M isoprenaline; for Emax: Cavia porcellus, read-out: I.A. (Intrinsic Activity, efficacy). The format is cell-based. Here is the method: Male guinea pigs (300-600g) were stunned by a blow to the head and bled from the carotid artery. The trachea was exposed, dissected free of connective tissue, and transferred to oxygenated krebs solution at 37°C. Next, spirals (2 per trachea) were prepared by cutting the whole trachea spirally along its longitudinal axis and then dividing this spiral lengthwise. Each preparation was mounted, using silk thread, in a 10ml organ bath filled with krebs solution at 37°C and bubbled with 5% CO₂ with O₂. The resting tension of the preparations was set at 2g and changes in muscle tension were monitored isometrically by means of a UFI (2oz) force and displacement transducer (Ormed Ltd) connected to a Linseis pen recorder. All preparations were allowed to equilibrate for 60 minutes. During this equilibration period the preparations were washed by upward displacement at 15 minute intervals and, if necessary, the resting tension was readjusted to 2g using a mechanical micromanipulator system.
Once a steady resting tension had been obtained, the preparations were dosed cumulatively with the test compound (10⁻⁸-2x10⁻⁵M), and finally a maximum relaxation achieved by addition of 10⁻³M isoprenaline. The fall in tension evoked by the test compound was expressed as a percentage of the total relaxation evoked in the presence of 10⁻³M isoprenaline. Appropriate concentration-relaxation curves were then constructed and values for potency (IC₅₀) and efficacy (Intrinsic Activity, I.A.) were obtained.
The compositions of Krebs solution is: sodium chloride 118.07mM, sodium hydrogen carbonate 26.19mM, potassium chloride 4.68mM, potassium orthophosphate 1.18mM, magnesium sulphate septahydrate 1.8mM and calcium chloride 2.52mM;pH ca. 7.45.

Assay [2] concerns Spontaneously hypertensive rats. Briefly: Blood pressure lowering activity, tail cuff method. The assay is classed as in vivo. The method, then: Systolic blood pressure were recorded by a modification of the tail cuff method described by I.M. Claxton, M.G. Palfreyman, R.H. Poyser, R.L. Whiting, European Journal of Pharmacology, 37, 179 (1976). A W+W BP recorder, model 8005 was used to display pulses.Prior to all measurements rats were placed in a heated environment (33.5 ± 0.5°C) before transfer to a restraining cage. Each determination of blood pressure was the mean of at least 6 readings. Spontaneously hypertensive rats (ages 12-18 weeks) with systolic blood pressures >180 mmHg were considered hypertensive.

As for `CC1(C)c2ccc([N+](=O)[O-])cc2[C@@H](N2CCCC2=O)[C@@H]1O` (relative stereo) [Example 1, trans - 1,1-dimethyl-5-nitro-3-(2-oxopyrrolidin-1-yl)-indan-2-ol], the Emax in assay [1] came out at 88%. Also, the “% change in systolic B.P.” value was -48 ± 4(n=4) % in assay [2] (10 mg/kg p.o., 1 h post dose); -49 ± 6(n=3) % in assay [2] (10 mg/kg p.o., 2 h post dose); -42 ± 4(n=6) % in assay [2] (10 mg/kg p.o., 4 h post dose); -30 ± 4(n=6) % in assay [2] (10 mg/kg p.o., 6 h post dose).
Regarding `CC1(C)c2ccc(N)cc2[C@@H](n2ccccc2=O)[C@@H]1O` (relative stereo) [Example 9, Trans-5-amino-1,1-dimethyl-3-(2-pyridon-1-yl)indan-2-ol], the “% change in systolic B.P.” value in assay [2] (3 mg/kg p.o., 1 h post dose) is -12 ± 2%; in assay [2] (3 mg/kg p.o., 2 h post dose), -16 ± 3%; in assay [2] (3 mg/kg p.o., 4 h post dose) it was -14 ± 4%; in assay [2] (3 mg/kg p.o., 6 h post dose), -11 ± 2%.
In the case of `C[C@@H]1CCC(=O)N1[C@@H]1c2cc([N+](=O)[O-])ccc2C(C)(C)[C@H]1O` (mixture of isomers) [Example 26, Trans-1,1-Dimethyl-5-nitro-3-(5-(R)-methyl-2-oxopyrrolidin-1-yl)indan-2-ol], the Emax in assay [1] is 98%.
In the case of `CC1(C)C=C(n2ccccc2=O)c2cc(C#N)ccc21` [Example 8, 5-Cyano-1,1-dimethyl-3-(2-pyridon-1-yl)ind-2-ene], in assay [1], the Emax came to 77%. For the same molecule, the “% change in systolic B.P.” value in assay [2] (1 mg/kg p.o., 1 h post dose) is -12 ± 5%; in assay [2] (1 mg/kg p.o., 2 h post dose), -15 ± 3%; in assay [2] (1 mg/kg p.o., 4 h post dose), -26 ± 8%; in assay [2] (1 mg/kg p.o., 6 h post dose), -21 ± 2%.
Turning to `CC1(C)C=C(N2CCCCC2=O)c2ccc(C(F)(F)F)cc21` [Example 16, 1,1-dimethyl-3-(2-oxopiperidin-1-yl)-6-trifluoromethylind-2-ene], the Emax in assay [1] stood at 89%.
For the molecule `CCc1ccc2c(c1)[C@@H](n1ccccc1=O)[C@H](O)C2(C)C` (relative stereo) [Example 23, Trans 1,1-Dimethyl-5-ethyl-3-(2-pyridon-1-yl)indan-2-ol], the “I.A. (Intrinsic Activity, efficacy)” value in assay [1] turned out to be 0.92.
With `C[C@@H]1CCC(=O)N1C1=CC(C)(C)c2ccc([N+](=O)[O-])cc21` [Example 27, 1,1-dimethyl-5-nitro-3-(5-(R)-methyl-2-oxopyrrolidin-1-yl)ind-2-ene], the Emax in assay [1] was 93%.
Regarding `CC1(C)c2ccc([N+](=O)[O-])cc2[C@@H](N2CCCCC2=O)[C@@H]1O` (relative stereo) [Example 3, Trans 1,1-Dimethyl-5-nitro-3-(2-oxopiperidin-1-yl) indan-2-ol], in assay [1], the Emax was 89%. The “% change in systolic B.P.” value in assay [2] (1 mg/kg p.o., 1 h post dose) is -33 ± 5 (n=5) %; in assay [2] (1 mg/kg p.o., 2 h post dose), -17 ± 3 (n=4) %; in assay [2] (1 mg/kg p.o., 4 h post dose), -22 ± 4 (n=6) %; in assay [2] (1 mg/kg p.o., 6 h post dose) it was -19 ± 5 (n=6) %.
With `CC1(C)C=C(n2ccccc2=O)c2cc([N+](=O)[O-])ccc21` [Example 6, 1,1-Dimethyl-5-nitro-3-(2-pyridon-1-yl)ind-2-ene], the Emax in assay [1] was determined as 95%. Moreover, the “% change in systolic B.P.” value in assay [2] (1 mg/kg p.o., 1 h post dose) is given as -18 ± 3%; in assay [2] (1 mg/kg p.o., 2 h post dose), -18 ± 3%; in assay [2] (1 mg/kg p.o., 4 h post dose), -13 ± 3%.
Regarding `CC1(C)C=C(CN2CCCC2=O)c2cc(C#N)ccc21` [Example 24, 5-Cyano-1,1-dimethyl-3-[(2-oxopyrrolidin-1-yl)methyl]ind-2-ene], the Emax in assay [1] was determined as 59%.
Still for that read-out and setting: to `CC1(C)C=C(N2CCCCC2=O)c2cc([N+](=O)[O-])ccc21` [Example 4, 1,1-dimethyl-5-nitro-3-(2-oxopiperidin-1-yl)ind-2-ene] belongs 94%; to `CCc1ccc2c(c1)[C@@H](N1CCCCC1=O)[C@H](O)C2(C)C` (relative stereo) [Example 17, Trans-1,1-Dimethyl-5-ethyl-3-(2-oxopiperidin-1-yl)indan-2-ol], 76%.
Consider `CC1(C)c2ccc([N+](=O)[O-])cc2[C@@H](n2ccccc2=O)[C@@H]1O` [Example 5, Trans-1,1-dimethyl-5-nitro-3-(2-pyridon-1-yl)indan-2-ol], for which the Emax in assay [1] was determined as 91%. Also, the “% change in systolic B.P.” value is -40 (n=1) % in assay [2] (1 mg/kg p.o., 1 h post dose); -43 (n=1) % in assay [2] (1 mg/kg p.o., 2 h post dose); -43 ± 4 (n=1) % in assay [2] (1 mg/kg p.o., 4 h post dose); -31 ± 5 (n=5) % in assay [2] (1 mg/kg p.o., 6 h post dose).
Turning to `O=C(N[C@@H]1c2cc([N+](=O)[O-])ccc2C[C@H]1O)c1ccc(F)cc1` [Example 10, Trans-1-N-(4-fluorobenzamido)-6-nitroindan-2-ol], the Emax in assay [1] worked out at 59%.
As to `CC1(C)c2ccc(C#N)cc2[C@@H](n2ccccc2=O)[C@@H]1O` [Example 7, Trans-5-cyano-1,1-dimethyl-3-(2-pyridon-1-yl)-indan-2-ol], in assay [1], the Emax is 81%. The “% change in systolic B.P.” value in assay [2] (1 mg/kg p.o., 1 h post dose) was -31 ± 3%; in assay [2] (1 mg/kg p.o., 2 h post dose), -22 ± 4%; in assay [2] (1 mg/kg p.o., 4 h post dose), -20 ± 4%; in assay [2] (1 mg/kg p.o., 6 h post dose) it was -12 ± 6%.

The values are drawn from patent publication EP0321175A1, “Indane derivatives” (BEECHAM GROUP PLC, priority 1987, dated 1989).
